# Earlier results, collected in US8618066B1 (priority 2003, dated 2013).
# Entries after “also recorded” stand apart in the source; their conditions may differ. Like-named read-outs stand apart in the source and are kept apart here.
# System: Gram+ & Gram− bacteria, fungi, virus, mammalian/cancer cells
# Conditions: cited from earlier work
# [1] = classes of organisms/cells the peptide is active against
Substance,Activity,Activity [1]
"PW2: peptide, source Synthetic (HPLKQYWWRPSI; Synthetic PW2)",Fungi,
Histone H2b-3 (HLP-3) (Fragment): source Rainbow trout (PDPAKTAPKKKSKKAVT; Oncorhynchus mykiss; Histone H2B-3(HLP-3)(Fragment)),Fungi,
"AMP2 (MJ-AMP2): peptide, source Garden four-o'clock (CIGNGGRCNENVGPPYCCSGFCLRQPNQGYGVCRNR; antimicrobial peptidic agent2 (MJ-antimicrobial peptidic agent2); listed as Mirabilis jalapa)","Gram+, Fungi",
"SEQ ID No. 195: synthetic antifungal peptide, Table 1 (WCQQKGQPCW; listed as Fusarium graminearum)",Fungi,
"HNP-4 Defensin: peptide, source Human (VCSCRLVFCRRTELRVGNCLIGGVSFTYCCTRV; HNP-4 Defensin; listed as Homo sapiens)","Gram+ & Gram−, Fungi",
"Androctonin: peptide, source Androctonus Australis (RSVCRQIKICRRRGGCYYKCTNRPY; listed as Androctonus australis)",,"Gram+ & Gram−, Fungi"
"SEQ ID No. 32: synthetic antifungal peptide, Table 1 (FFKLRF)",Fungi,
Alpha-basrubrin (Fragment): source Malabar spinach (GADFQECMKEHSQKQHQHQG; Alpha-basrubrin (Fragment); listed as Basella alba),"Virus, Fungi",
"Tricholongin: peptide, source Trichoderma longibrachiatum (AGFAAQAAASLAPVAAQQL; Tricholongin; listed as Trichoderma longibrachiatum)",,"Gram+ & Gram−, Fungi"
"SEQ ID No. 28: synthetic antifungal peptide, Table 1 (HRF)",Fungi,
"Protegrin 2: peptide, source Pig (RGGRLCYCRRRFCICV; Protegrin 2; listed as Sus scrofa)","Gram+ & Gram−, Virus, Fungi",
"ADENOREGULIN: peptide, source Two coloured leaf frong (GLWSKIKEVGKEAAKAAAKAAGKAALGAVSEAV; Phyllomedusa bicolor; Adenoregulin)",,"Gram+ & Gram−, Fungi"
"Sativum defensin 1 (psd1): peptide, source Seed of Pea (KTCEHLADTYRGVCFTNASCDDHCKNKAHLISGTCHNWKCFCTQNC; Seed of pea defensin 1 (psd1); listed as Pisum sativum)",Fungi,
"Lactoferricin B: peptide, source Bovine (FKCRRWQWRMKKLGAPSITCVRRAF; Lactoferricin B; listed as Bos taurus)","Gram+ & Gram−, Virus, Fungi,",
Melittin B,,"Gram+ & Gram−, Fungi,; also recorded: Mammalian cells"
"SEQ ID No. 46: synthetic antifungal peptide, Table 1 (QFKLRF)",Fungi,
"SEQ ID No. 37: synthetic antifungal peptide, Table 1 (LFKLRF)",Fungi,
"Cecropin B: peptide, source Chinese oak silk moth (KWKIFKKIEKVGRNIRNGIIKAGPAVAVLGEAKAL; Cecropin B; listed as Antheraea pernyi)","Gram+ & Gram−, Fungi",
"RatNP-3: peptide, source Rat (CSCRTSSCRFGERLSGACRLNGRIYRLCC; RatNP-3; listed as Rattus norvegicus)","Gram+ & Gram−, Virus, Fungi",
"Spingerin: peptide, source Pseudacanthotermes spiniger (HVDKKVADKVLLLKQLRIMRLLTRL; Pseudacanthotermas spiniger; Spingerin)","Gram+ & Gram−, Fungi",
"Pseudin 1: peptide, source Paradoxical frog (GLNTLKKVFQGLHEAIKLINNHVQ; Pseudin 1; listed as Pseudis paradoxa)","Gram+ & Gram−, Fungi",
"SEQ ID No. 185: synthetic antifungal peptide, Table 1 (MSPSTKNIPAPVAGARAGPIHYCVIM; listed as Magnaporthe grisea)",Fungi,
"Thanatin: peptide, source Podisus maculiventris (GSKKPVPIIYCNRRTGKCQRM; listed as Podisus maculiventris)","Gram+ & Gram−, Fungi",
"SEQ ID No. 34: synthetic antifungal peptide, Table 1 (HFKLRF)",Fungi,
"SEQ ID No. 186: synthetic antifungal peptide, Table 1 (MPSTAASTRVPQTTMNFNGYCVVM; listed as Neurospora crassa)",Fungi,
"SEQ ID No. 196: synthetic antifungal peptide, Table 1 (WCTWKGQPCW; listed as Fusarium graminearum)",Fungi,
"HNP-5 Defensin: peptide, source Human (QARATCYCRTGRCATRESLSGVCEISGRLYRLCCR; HNP-5 Defensin; listed as Homo sapiens)","Gram+ & Gram−, Fungi",

Substance,Activity,Activity [1]
"SEQ ID No. 38: synthetic antifungal peptide, Table 1 (YFKLRF)",Fungi,
"Nigrocin 2: peptide, source Rana nigromaculata (GLLSKVLGVGKKVLCGVSGLC; Nigrocin 2; listed as Rana nigromaculata)","Gram+ & Gram−, Fungi",
"Neutrophil defensin 3 (HANP-3): peptide, source Golden hamster (VTCFCRRRGCASRERLIGYCRFGNTIYGLCCRR; Neutrophil defensin 3 (HANP-3); listed as Mesocricetus auratus)","Gram+, Fungi",
"Hepcidin 25: peptide, source Human (DTHFPICIFCCGCCHRSKCGMCCKT; Hepcidin 25; listed as Homo sapiens)",Fungi,
"Penaeidin-1: peptide, source Penoeid shrimp (YRGGYTGPIPRPPPIGRPPLRLVVCACYRLSVSDARNCCIKFGSCCHLVK; Penaeidin-1; listed as Penaeus vannamei)","Gram+ & Gram−, Fungi",
"SEQ ID No. 26: synthetic antifungal peptide, Table 1 (LRF)",Fungi,
"Protegrin 4: peptide, source Pig (RGGRLCYCRGWICFCVGR; Protegrin 4; listed as Sus scrofa)","Gram+ & Gram−, Virus, Fungi",
"NP-3A defensin: peptide, source Rabbit (GICACRRRFCPNSERFSGYCRVNGARYVRCCSRR; NP-3A defensin; listed as Oryctolagus cuniculus)","Gram+ & Gram−, Virus, Fungi",
"SEQ ID No. 29: synthetic antifungal peptide, Table 1 (FLRF)",Fungi,
"PN-AMP: peptide, source Japenese morning glory","Gram+, Fungi",
"HNP-2 Defensin: peptide, source Human (CYCRIPACIAGERRYGTCIYQGRLWAFCC; HNP-2 Defensin; listed as Homo sapiens)","Gram+ & Gram−, Virus, Fungi",
"SEQ ID No. 182: synthetic antifungal peptide, Table 1 (YMPQGPKLQLFHW)",Fungi,
"Neutrophil defensin 2 (RMAD-2): peptide, source Rhesus macaque (ACYCRIPACLAGERRYGTCFYMGRVWAFCC; neutrophil defensin 2 (RMAD-2); listed as Macaca mulatta)","Gram+ & Gram−, Fungi",
"HNP-3 Defensin: peptide, source Human","Gram+ & Gram−, Virus, Fungi",
"Pseudo-hevein (Minor hevin): peptide, source Para rubber tree (EQCGRQAGGKLCPNNLCCSQYGWCGSSDDYCSPSKNCQSNCKGGG; Pseudo-hevein (Minor hevein); listed as Hevea brasiliensis)",Fungi,
"Peptide PGQ: peptide, source African clawed frog (GVLSNVIGYLKKLGTGALNAVLKQ; Peptide PGQ; listed as Xenopus laevis)","Gram+ & Gram−, Fungi",
"MBP-1: peptide, source Maize (RSGRGECRRQCLRRHEGQPWETQECMRRCRRRG; Zea mays; MBP-1)","Gram+ & Gram−, Fungi",
"SEQ ID No. 189: synthetic antifungal peptide, Table 1 (QWCRIHGQSCW; listed as Neurospora crassa)",Fungi,
"GNCP-1: peptide, source Guinea pig (RRCICTTRTCRFPYRRLGTCIFQNRVYTFCC; GNCP-1; listed as Cavia cutleri)","Gram+ & Gram−, Virus, Fungi",
"Brevinin-1BB: peptide, source Rio Grande leopard frog (FLPAIAGMAAKFLPKIFCAISKKC; Brevinin-1BB; listed as Rana berlandieri)","Gram+ & Gram−, Fungi",
"SEQ ID No. 190: synthetic antifungal peptide, Table 1 (WHWLQLKPGQPMY; listed as Saccharomyces cerevisiae)",Fungi,
"SEQ ID No. 42: synthetic antifungal peptide, Table 1 (RFKLRF)",Fungi,
"P-18: antimicrobial peptide, Table 1 (KWKLFKKIPKFLHLAKKF; listed as Penaeus vannamei)","Gram+ & Gram−, Fungi, Cancer",
"Cecropin A: peptide, source Nocutuid moth (RWKVFKKIEKVGRNIRDGVIKAAPAIEVLGQAKAL; Cecropin A; listed as Heliothis virescens)","Gram+ & Gram−, Fungi",
"Histatin 5: peptide, source Human (DSHAKRHHGYKRKFHEKHHSHRGY; Histatin 5; listed as Homo sapiens)","Gram+ & Gram−, Fungi",
"Protegrin 5: peptide, source Pig (RGGRLCYCRPRFCVCVGR; Protegrin 5; listed as Sus scrofa)","Gram+ & Gram−, Virus, Fungi",
"Dolabellanin B2: peptide, source Sea hare (SHQDCYEALHKCMASHSKPFSCSMKFHMCLQQQ; Dolabellanin B2; listed as Dolabella auricularia)","Gram+ & Gram−, Fungi",
